Assay results reported in the supplement of paper PMC11061612.

What was measured:
Assay in all cases: combination Emax (second highest fraction inhibited in the dose matrix, 72 h); higher = more inhibition; extreme values may be limits of the assay
[1] = system: HMV-II (Melanoma)
Outline: (§1)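 Cell lines in DMEM/F12 or RPMI with 10% FBS were plated in 1536-well plates, held 24 hours at 37°C, 5% CO2, then given two-drug dose matrices for 72 hours (DMSO typically 0.2%). Viability was read by CellTiter-Glo 2.0 luminescence and scaled as inhibition from 0 (vehicle wells) to 1 (blank wells). Combination Emax is the second-highest inhibition in the matrix; Bliss excess is observed combination effect minus expected EA + EB − EA·EB, EA and EB being single-agent effects.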

[2] = system: OC-314 (Ovarian Carcinoma)
Outline: as §1

[3] = system: CAL-54 (Kidney Carcinoma)
Outline: as §1

[4] = system: MDA-MB-468 (Breast Carcinoma)
Outline: as §1

[5] = system: NCI-H28 (Mesothelioma)
Outline: as §1

[6] = system: RKO (Colorectal Carcinoma)
Outline: as §1

[7] = system: SW626 (Colorectal Carcinoma)
Outline: as §1

[8] = system: CAL-51 (Breast Carcinoma)
Outline: as §1

SMILES	combination Emax [1]	combination Emax [2]	combination Emax [3]	combination Emax [4]	combination Emax [5]	combination Emax [6]	combination Emax [7]	combination Emax [8]
C=CCn1c(=O)c2cnc(Nc3ccc(N4CCN(C)CC4)cc3)nc2n1-c1cccc(C(C)(C)O)n1 [AZD1775] + CCc1c2c(nc3ccc(O)cc13)-c1cc3c(c(=O)n1C2)COC(=O)[C@]3(O)CC [SN-38] (first compound max 1 µM, partner max 0.3 µM)	0.634	0.996	0.843	0.828	0.551	0.966	–	–
COc1nnc2ccc(N3CCC(c4ccc(OCCN5CCN(C)C(=O)[C@H]5C)cc4)CC3)nn12 [AZD5153] + C=CCn1c(=O)c2cnc(Nc3ccc(N4CCN(C)CC4)cc3)nc2n1-c1cccc(C(C)(C)O)n1 [AZD1775] (first compound max 1 µM, partner max 1 µM)	0.709	0.912	0.832	–	0.508	0.841	0.75	0.956
COc1nnc2ccc(N3CCC(c4ccc(OCCN5CCN(C)C(=O)[C@H]5C)cc4)CC3)nn12 [AZD5153] + CC1(C)CCC(CN2CCN(c3ccc(C(=O)NS(=O)(=O)c4ccc(NCC5CCOCC5)c([N+](=O)[O-])c4)c(Oc4cnc5[nH]ccc5c4)c3)CC2)=C(c2ccc(Cl)cc2)C1 [Venetoclax] (first compound max 1 µM, 7x7, partner max 1 µM)	0.524	0.814	0.769	–	0.487	0.757	0.689	0.673
COc1nnc2ccc(N3CCC(c4ccc(OCCN5CCN(C)C(=O)[C@H]5C)cc4)CC3)nn12 [AZD5153] + CCN(CCO)CCCOc1ccc2c(Nc3cc(CC(=O)Nc4cccc(F)c4)[nH]n3)ncnc2c1 [AZD2811] (first compound max 1 µM, 7x7, partner max 1 µM)	0.588	0.884	0.778	–	0.518	0.812	0.735	0.807
COc1nnc2ccc(N3CCC(c4ccc(OCCN5CCN(C)C(=O)[C@H]5C)cc4)CC3)nn12 [AZD5153] + C[C@@H]1COCCN1C2=NC(=NC(=C2)C3(CC3)[S@](=N)(=O)C)C4=C5C=CNC5=NC=C4 [AZD6738] (first compound max 1 µM, 7x7, partner max 10 µM)	0.712	0.981	0.823	–	0.659	0.923	0.798	0.993
COc1nnc2ccc(N3CCC(c4ccc(OCCN5CCN(C)C(=O)[C@H]5C)cc4)CC3)nn12 [AZD5153] + Cc1c2c(nn1C)CSCc1cc(n(C)n1)CSc1cc(c3ccccc3c1)OCCCc1c(C(=O)O)n(C)c3c-2c(Cl)ccc13 [AZD5991] (first compound max 1 µM, 7x7, partner max 1 µM)	0.76	0.842	0.729	–	0.465	0.78	0.704	0.917
COc1nnc2ccc(N3CCC(c4ccc(OCCN5CCN(C)C(=O)[C@H]5C)cc4)CC3)nn12 [AZD5153] + Cn1cnc2c(F)c(Nc3ccc(Br)cc3Cl)c(C(=O)NOCCO)cc21 [Selumetinib] (first compound max 1 µM, 7x7, partner max 10 µM)	0.927	0.795	0.765	–	0.502	0.88	0.881	0.712
CS(=O)(=O)CCNCc1ccc(-c2ccc3ncnc(Nc4ccc(OCc5cccc(F)c5)c(Cl)c4)c3c2)o1 [Lapatinib] + Cn1cnc2c(F)c(Nc3ccc(Br)cc3Cl)c(C(=O)NOCCO)cc21 [Selumetinib] (first compound max 10 µM, 7x7, partner max 10 µM)	0.768	0.691	0.559	0.882	0.412	0.763	–	–
CS(=O)(=O)CCNCc1ccc(-c2ccc3ncnc(Nc4ccc(OCc5cccc(F)c5)c(Cl)c4)c3c2)o1 [Lapatinib] + NC1(c2ccc(-c3nc4ccn5c(=O)[nH]nc5c4cc3-c3ccccc3)cc2)CCC1 [MK-2206] (first compound max 10 µM, 7x7, partner max 10 µM)	0.904	0.873	0.921	0.959	0.607	0.931	–	–
Cc1nc(-c2cn3c(n2)-c2ccc(-c4cnn(C(C)(C)C(N)=O)c4)cc2OCC3)n(C(C)C)n1 [Taselisib] + O=C(Nc1ccc2[nH]nc(-c3ccncc3)c2c1)[C@@H]1CCN(CC(=O)N2CCN(c3ccc(-c4ncccn4)cc3)CC2)C1 [SCH772984] (first compound max 10 µM, 7x7, partner max 5 µM)	0.867	0.747	0.816	0.747	0.589	0.961	–	–
